Converted amounts (≈) assume the structure as drawn.
How the values were obtained:
[1] = IC50 values and selectivity of Table 10A (target yeast, anti-target human cytochrome); format: biochemical
Protocol: (§1) All measurements were performed in triplicate.

[2] = tested on: NIH-3T3 mammalian fibroblasts; test: Counterscreen mammalian cell toxicity assay (fibroblast toxicity); format: cell-based, murine; settings: for IC50: Mus musculus, NIH3T3, footnote: in the absence of fluconazole, read-out: Anti-target Potency (μM) Mean ± S.E.M Fibroblasts^b IC50
Plasma protein binding = settings: human, plasma
C. albicans CaCi-2 = test: Secondary single-agent (no-fluconazole) activity assay; format: cell-based, Candida albicans; settings: Candida albicans, CACI2; in the absence of fluconazole; read-out: Target Potency (μM) Mean ± S.E.M CaCi-2^b IC50
In short: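 C. albicans CaCi-2 in RPMI synthetic defined medium with 1% Pen/Strep, starting OD600 0.00015, exposed to compound alone (no fluconazole) for 48 h at 37 °C without agitation. Growth read as Alamar Blue fluorescence (1:200 final) after 2 h at room temperature.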

PBS solubility = settings: aqueous buffer
C. albicans CaCi-8 = test: microbe, parasite or virus in culture; format: cell-based, Candida albicans; settings: read-out: Target Potency (μM) Mean ± S.E.M CaCi-8^a IC50; in the presence of fluconazole
In short: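 Hits tested for chemosensitization of the fluconazole-resistant CaCi-8 strain, for inherent antifungal activity without fluconazole, and for mammalian fibroblast toxicity by fluorescence reporter. Geldanamycin plus fluconazole served as positive control; a Saccharomyces assay assigned mechanism to Hsp90, calcineurin or other pathways.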

Plasma stability = settings: % remaining in human plasma after a 5-hour incubation
yeast = target: T1, yeast (Saccharomyces cerevisiae, UniProt P00163); test: IC50 values and selectivity of Table 10A (target yeast, anti-target human cytochrome); format: biochemical; settings: for Selectivity* (anti-target IC50)/(target IC50): target yeast, anti-target human cytochrome
T1 construct: Mitochondrial membranes were prepared from yeast; endogenous in cells; host or cells: yeast (mitochondrial membranes)
Protocol: as §1

Aspergillus terreus = Aspergillus terreus susceptibility test (CLSI M38-A2); format: cell-based
Protocol: Aspergillus terreus (A. terreus) susceptibility testing was performed as described in Clinical Laboratory Standards Institute document […]-A2 (CLSI […]-A2) (CLSI. Reference Method for Broth Dilution Antifungal Susceptibility Testing of Filamentous Fungi; Approved Standard-Second Edition. CLSI, 940 West Valley Road, Suite 1400, Wayne, Pa. 19087-1898 USA, 2003).

[3] = tested on: Saccharomyces cerevisiae strain W303-1a; test: In vivo inhibition of fungal respiration (growth on glycerol); format: cell-based; settings: glycerol medium, 48 hours
Protocol: Saccharomyces cerevisiae (S. cerevisiae) strain W303-1a was grown overnight in Yeast-Peptone-Dextrose media, washed, and diluted into Yeast Nitrogen Base media with 2.5% glycerol containing compounds at a range of dilutions.

fungus = settings: cited from earlier work
[4] = tested on: fluconazole-resistant C. albicans strain Gu5; settings: cited from earlier work
[5] = tested on: fluconazole-susceptible C. albicans strain 90028; settings: cited from earlier work

Row | Structure (SMILES) | IC50 [1] [µM] | IC50 [2] [µM] | fraction unbound (Plasma protein binding) | IC50 (C. albicans CaCi-2) [µM] | solubility (PBS solubility; PBS) [µM] | IC50 (C. albicans CaCi-8) [µM] | Plasma Stability (Plasma stability) [%] | Selectivity* (anti-target IC50)/(target IC50) (yeast) | also measured
1 | c1ccc(-c2nn(Cc3nn[nH]n3)c3ccccc23)cc1 [Compound I-87] | > 160 |  |  |  |  |  |  |  | 
2 | COc1ccc(-c2n[nH]c3ccccc23)cc1 [Compound 9855970] |  | > 6 | 0.02 | > 26 | < 1 | > 26 | 89 |  | 
3 | CCCNC(=O)Cn1nc(-c2ccccc2)c2cc(Cl)ccc21 [Compound 20877322] |  | > 6 | < 0.01 | > 26 | < 1 | > 26 | 97 |  | 
4 | Cn1nnc(Cn2nc(-c3cc(OCCCC4CCCCC4)ccc3F)c3ccccc32)n1 [Compound I-102] | 0.046 |  |  |  |  |  |  | 16 | 
5 | COC(=O)Cn1nc(-c2cccc(OCc3ccccc3)c2)c2ccccc21 [Compound I-7] |  |  |  |  |  |  |  |  | Inhibitory activity against A. terreus (Aspergillus terreus): shows inhibitory activity; Inhibitory activity against S. cerevisiae (respiratory growth) [3]: shows inhibitory activity
6 | O=C(O)c1nn(Cc2ccc(Cl)cc2)c2ccccc12 [Compound 100493] |  | > 6 | < 0.01 | > 26 | 516 (≈ 148 µg/mL) | > 26 | > 99 |  | 
7 | Brc1cccnc1Cn1nc(-c2ccccc2)c2ccccc21 [Compound I-113] | > 120 |  |  |  |  |  |  |  | 
8 | O=C(Cn1nc(C(=O)N2CCCCC2)c2ccccc21)N1CCOCC1 [Compound 46378661] |  | > 6 | 0.48 | > 26 | 529 (≈ 189 µg/mL) | > 26 | > 99 |  | 
9 | CCOC(=O)c1c2ccccc2nn1Cc1ccc(Cl)cc1 [Compound 46856252] |  | > 6 | < 0.01 | > 26 | < 1 | > 26 | 70 |  | 
10 | COC(=O)Cn1nc(-c2cccc(OCc3ccccc3)c2)c2ccccc21 [Compound I-140] | 0.4 |  |  |  |  |  |  | 8 | 
11 | c1ccc(-c2nn(Cc3nnco3)c3ccccc23)cc1 [Compound I-74] | 3 |  |  |  |  |  |  | 53 | 
12 | COC(=O)Cn1nc(-c2cccc(OCCC(C)(C)C)c2)c2ccccc21 [Compound I-79] | 0.04 |  |  |  |  |  |  | 50 | 
13 | O=C(Cn1nc(-c2ccccc2)c2cc(Cl)ccc21)N1CCOCC1 [Compound 20877381] |  | > 6 | 0.04 | > 26 | 8 (≈ 2.85 µg/mL) | > 26 | 99 |  | 
14 | COC(=O)Cn1nc(-c2ccccc2)c2ccccc21 [Compound I-96] | 0.6 |  |  |  |  |  |  |  | 
15 | COC(=O)Cn1nc(-c2cccc([N+](=O)[O-])c2)c2ccccc21 [Compound I-119] | 0.5 |  |  |  |  |  |  | 160 | 
16 | Cc1nn(S(C)(=O)=O)c2ccccc12 [Compound 46856251] |  | > 6 | 0.37 | > 26 | 494 (≈ 104 µg/mL) | > 26 | > 99 |  | 
17 | COC(=O)Cn1nc(-c2ccccc2)c2cccc(C)c21 [Compound I-82] | 0.125 |  |  |  |  |  |  | 40 | 
18 | COC(=O)Cn1nc(-c2cccc(C#N)c2)c2ccccc21 [Compound I-118] | 1.25 |  |  |  |  |  |  | 96 | 

Row | Structure (SMILES) | IC50 [1] [µM] | IC50 [2] [µM] | fraction unbound (Plasma protein binding) | IC50 (C. albicans CaCi-2) [µM] | solubility (PBS solubility; PBS) [µM] | IC50 (C. albicans CaCi-8) [µM] | Plasma Stability (Plasma stability) [%] | Selectivity* (anti-target IC50)/(target IC50) (yeast) | also measured
19 | COC(=O)Cn1c(-c2ccccc2)nc2ccccc21 [Compound 4131200] |  | > 6 | 0.05 | > 26 | 438 (≈ 117 µg/mL) | > 26 | 46 |  | 
20 | COC(=O)Cn1nc(-c2cc(OCc3ccccc3)ccc2F)c2ccccc21 [Compound I-136] | 0.06 |  |  |  |  |  |  | 8.3 | 
21 | O=C(O)c1c2ccccc2nn1Cc1ccc(Cl)cc1 [Compound 14420592] |  | > 6 | < 0.01 | > 26 | 503 (≈ 144 µg/mL) | > 26 | 96 |  | 
22 | COC(=O)Cn1nc(-c2ccsc2)c2ccccc21 [Compound I-77] | 0.625 |  |  |  |  |  |  | 48 | 
23 | c1ccc(-c2nn(Cc3cnccn3)c3ccccc23)cc1 [Compound I-115] | 0.63 |  |  |  |  |  |  | 128 | 
24 | COC(=O)Cn1nc(-c2cccc(OCCCC3CCCCC3)c2)c2ccccc21 [Compound I-78] | 0.01 |  |  |  |  |  |  | 100 | 
25 | CCCCc1oc2ccccc2c1C(=O)c1cc(I)c(OCCN(CC)CC)c(I)c1 [amiodarone] |  |  |  |  |  |  |  |  | MIC50, single-agent antifungal activity (fungus): 3.1 µM (≈ 2 µg/mL)
26 | O=C(O)Cn1nc(-c2ccccc2)c2ccccc21 [Compound I-107] | > 120 |  |  |  |  |  |  |  | 
27 | CCOC(=O)c1nn(Cc2ccc(Cl)cc2)c2ccccc12 [Compound 12312246] |  | > 6 | < 0.01 | > 26 |  | > 26 | 93 |  | solubility (PBS solubility): < 0.1 µM
28 | Cc1cccc2c(-c3cc(C(F)(F)F)ccc3F)nn(Cc3nnn(C)n3)c12 [Compound I-99] | 0.023 |  |  |  |  |  |  | 160 | 
29 | Cc1cc(Cn2nc(-c3ccccc3)c3ccccc32)on1 [Compound I-92] | 30 |  |  |  |  |  |  | >5 | 
30 | FC(F)(F)c1ccc(-c2n[nH]c3ccccc23)cc1 [Compound 49635869] |  | > 6 | < 0.01 | > 26 | < 1 | > 26 | 79 |  | 
31 | COC(=O)Cn1nc(-c2ccccc2)c2cccc(C(F)(F)F)c21 [Compound 49835842] |  | > 6 | < 0.01 | > 26 | < 1 | > 26 | 50 |  | 
32 | Clc1ccc2c(c1)nnc1nnnn12 [CTBT, 7-chlorotetrazolo[5,1-c]benzo[1,2,4]triazine] |  |  |  |  |  |  |  |  | Concentrations inhibiting growth in the absence of fluconazole [4]: greater than 2.4 μM; MIC when combined with fluconazole [4]: 2.4 µM; Activity in the absence of fluconazole [5]: no activity; MIC when combined with fluconazole [5]: 2.4 µM
33 | CNC(=O)Cn1nc(-c2ccccc2)c2ccccc21 [Compound I-75] | > 80 |  |  |  |  |  |  |  | 
34 | COC(=O)Cn1nc(-c2cccc(OCc3ccccc3)c2F)c2ccccc21 [Compound I-134] | 0.2 |  |  |  |  |  |  | 20 | 
35 | COC(=O)Cn1nc(-c2ccccn2)c2ccccc21 [Compound I-120] | 15 |  |  |  |  |  |  |  | 
36 | COC(=O)Cn1nc(-c2cccc(F)c2)c2ccccc21 [Compound I-71] |  | 12.9 | 0.04 | > 26 | < 1 |  | < 1.0 | 80 | ** CaCi-2 to anti-target fold selectivity ([2]; fibroblast IC50 over CaCi-2 IC50 with fluconazole): 9.1; IC50 (yeast; target is yeast): 0.25 µM

— patent US9738610B2, “Indazole derivatives and uses thereof” (Whitehead Institute for Biomedical Research, priority 2012, dated 2017)
